What was measured:
Assay type in all cases: functional
[1] = tested on: Human immunodeficiency virus 1; test: Antiviral activity against Human immunodeficiency virus 1 harboring protease inhibitor resistance-associated mutations assessed as fold change in drug susceptibility relative to wild type
[2] = tested on: Human immunodeficiency virus 1; test: Antiviral activity against Human immunodeficiency virus 1 harboring protease inhibitor resistance-associated mutations and protease L76V mutation in viral protease assessed as fold change in drug susceptibility relative to wild type
[3] = tested on: Human immunodeficiency virus 1; test: Antiviral activity against Human immunodeficiency virus 1 harboring M46I, M46L, I54V, and V82A mutations in viral protease assessed as fold change in drug susceptibility relative to wild type
[4] = tested on: Human immunodeficiency virus 1; test: Antiviral activity against Human immunodeficiency virus 1 harboring M46I, M46L, I54V, V82A and L76V mutations in viral protease assessed as fold change in drug susceptibility relative to wild type
[5] = tested on: Human immunodeficiency virus 1; test: Antiviral activity against Human immunodeficiency virus 1 harboring M46I mutation in viral protease assessed as fold change in drug susceptibility relative to wild type
[6] = tested on: Human immunodeficiency virus 1; test: Antiviral activity against Human immunodeficiency virus 1 harboring M46I and L76V mutations in viral protease assessed as fold change in drug susceptibility relative to wild type

Structure (SMILES)	fold change (FC) [1]	fold change (FC) [2]	fold change (FC) [3]	fold change (FC) [4]	fold change (FC) [5]	fold change (FC) [6]
CCC[C@@]1(CCc2ccccc2)CC(O)=C([C@H](CC)c2cccc(NS(=O)(=O)c3ccc(C(F)(F)F)cn3)c2)C(=O)O1 [TIPRANAVIR]	6.7	3.6	1.7	1.2	1.2	0.8
CC(C)(C)NC(=O)[C@@H]1C[C@@H]2CCCC[C@@H]2CN1C[C@@H](O)[C@H](Cc1ccccc1)NC(=O)[C@H](CC(N)=O)NC(=O)c1ccc2ccccc2n1 [SAQUINAVIR]	197.4	43.5	2.8	3.2	1.2	0.7
CC(C)CN(C[C@@H](O)[C@H](Cc1ccccc1)NC(=O)O[C@H]1CCOC1)S(=O)(=O)c1ccc(N)cc1 [AMPRENAVIR]	21.1	70.9	3.7	19.3	1.5	6.7
COC(=O)N[C@H](C(=O)N[C@@H](Cc1ccccc1)[C@@H](O)CN(Cc1ccc(-c2ccccn2)cc1)NC(=O)[C@@H](NC(=O)OC)C(C)(C)C)C(C)(C)C [ATAZANAVIR]	75.2	11.3	5.7	2.1	4.3	0.9
CC(C)CN(C[C@@H](O)[C@H](Cc1ccccc1)NC(=O)O[C@H]1CO[C@H]2OCC[C@H]21)S(=O)(=O)c1ccc(N)cc1 [DARUNAVIR]	8.5	37.4	1.1	4.2	0.9	2.8
Cc1cccc(C)c1OCC(=O)N[C@@H](Cc1ccccc1)[C@@H](O)C[C@H](Cc1ccccc1)NC(=O)[C@H](C(C)C)N1CCCNC1=O [LOPINAVIR]	46.1	174.2	28	163.1	1.6	9.9
CC(C)c1nc(CN(C)C(=O)N[C@H](C(=O)N[C@@H](Cc2ccccc2)C[C@H](O)[C@H](Cc2ccccc2)NC(=O)OCc2cncs2)C(C)C)cs1 [RITONAVIR]	129.7	113.2	37.6	63.6	2.2	2.7
CC(C)(C)NC(=O)[C@@H]1CN(Cc2cccnc2)CCN1C[C@@H](O)C[C@@H](Cc1ccccc1)C(=O)N[C@H]1c2ccccc2C[C@H]1O.O [INDINAVIR]	40.1	60.1	9.7	37.4	3.4	8.6
Cc1c(O)cccc1C(=O)N[C@@H](CSc1ccccc1)[C@H](O)CN1C[C@H]2CCCC[C@H]2C[C@H]1C(=O)NC(C)(C)C [NELFINAVIR]	78.3	36.1	13.9	14.8	7.9	2.5

From ChEMBL document CHEMBL1671755, “Prevalence, mutation patterns, and effects on protease inhibitor susceptibility of the L76V mutation in HIV-1 protease” (2010)
